Assay results from article PMC11387447 (Pharmacological Reports, 2024).
Read-outs that look alike come from different tables or passages of the source. Marks after values point to notes of the source that are not given here.

What was measured:
[1] = design: method as in earlier work; settings: mice, repeated oral 10 mg/kg of REG for 5 consecutive days; ref 27 (Zopf et al.); cited from earlier work
[2] = Plasma pharmacokinetics of REG, M-2 and M-5 in rats after single oral REG with or without ATO (UPLC-MS/MS, non-compartmental analysis); type: in vivo, male Wistar rats; settings: for increase of AUC0–t / increase of AUC0–∞: IREG+ATO group compared to control IIREG group; for Cmax as share of the REG Cmax: single dose of REG 20 mg/kg; for AUC0–t / AUC0–∞ / Cmax / AUC(0-inf) / AUC(0-t): rat plasma; for AUC0–t / AUC0–∞ / Cmax / Tmax / Vd/F / AUC(0-inf) / AUC(0-t): n = 8
Procedure: Nonetheless, no other experimental conditions were changed.
Next, 20 μL of acetonitrile was added. The samples were mixed for 10 min and then centrifuged for 10 min at 8500 rpm. 50 μL of the resulting supernatant was filtered and used for further analysis. Each sample was analyzed twice, and the arithmetic mean was determined from the surface areas obtained in the chromatogram.
The LC–MS/MS system consisted of a Xevo TQ-S-micro triple quadrupole mass spectrometer coupled with a UPLC Acquity I-class PLUS (Waters Corporation, Milford, MA, USA), and the Waters Software MassLynx V4.2 SCN1017 Software. A Cortecs UPLC C18 column (2.1 × 50 mm, 1.6 μm) was equipped with an Acquity UPLC BEH C18 VanGuard pre-column (2.1 × 5 mm, 3/Pk, Waters Corporation). The injection volume was 5 μL. The temperature of the autosampler was 4 °C, and the temperature of the column was 40 °C. Mobile phase A was composed of 0.1% aqueous formic acid solution (v/v), and phase B of acetonitrile: methanol and 0.1% formic acid aqueous solution at 1:3 (v/v) ratio. The total run time was 5 min. […] Positive electrospray ionization (ESI) multiple reaction monitoring (MRM) experiments were conducted for sample analysis. The Xevo TQ-S Micro Mass spectrometer (Waters) was run in the positive ion mode, and configured in the multiple reaction monitoring mode, for the detection of REG, REG-N-oxide (M-2), N-desmethyl-REG-N-oxide (M-5), and isotope-labelled REG-d3.
The data were collected and processed using the MassLynx Software (V 4.2 SCN 1017, Waters). The following settings were used for the Xevo TQ-S Micro Mass spectrometer: source temperature—150 °C, desolvation temperature—600 °C, nitrogen gas flow—900 L/h, capillary voltage 3.6 kV. Transition ion pairs (parent m/z—daughter m/z) were identified, using the MRM mode, for the following compounds: 482.95–270.08 and 288.02 for REG; 499.00–304.01, 252.16, and 229.00 for M-2; 485.94–202.02 and 228.98 for M-5; and 486.02–273.07 for REG-d3 as an IS.

[3] = IIIATO group: single oral ATO 20 mg/kg b.w. alone, rat plasma, n = 8; median (quartiles) or mean ± SD (CV %); adopted from previous study ref 12; cited from earlier work
[4] = IIREG group: REG 20 mg/kg b.w. alone, median (quartiles)
[5] = IREG+ATO group: REG 20 mg/kg + ATO 20 mg/kg b.w., median (quartiles)
[6] = metabolite of REG, IIREG group: single oral REG 20 mg/kg b.w. alone, median (quartiles)
[7] = metabolite of REG, IREG+ATO group: single oral REG 20 mg/kg + ATO 20 mg/kg b.w., median (quartiles)
[8] = in the presence of ATO (IREG+ATO vs IIREG)
[9] = male, Wistar, rat, plasma, po, 20 mg/kg, IIREG group: single oral REG 20 mg/kg b.w. alone, median (quartiles)
[10] = male, Wistar, rat, plasma, po, 20 mg/kg, IREG+ATO group: single oral REG 20 mg/kg + ATO 20 mg/kg b.w., median (quartiles)

NC(=O)c1cc(Oc2ccc(NC(=O)Nc3ccc(Cl)c(C(F)(F)F)c3)c(F)c2)cc[n+]1[O-] [M-5, N-desmethyl regorafenib N-oxide]
Cmax as share of the REG Cmax [1]: 1.27% | M-5/REG ratio Cmax [2, 4]: 0.01 (0.01; 0.02) | increase of AUC0–t [2]: 6.0 fold | increase of AUC0–∞ [2]: 6.0 fold | Cmax as share of the REG Cmax ([2]; IREG+ATO group): 2.12% | M-5/REG ratio Cmax [2, 5]: 0.02 (0.02; 0.02) | Gmean ratio (90% CI) of AUC0–t ([2]; IREG+ATO vs IIREG): 7.13 (6.13; 8.29)* | Gmean ratio (90% CI) of AUC0–∞ ([2]; IREG+ATO vs IIREG): 7.16 (6.21; 8.26)* | Gmean ratio (90% CI) of Cmax ([2]; IREG+ATO vs IIREG): 5.65 (5.06; 6.31)* | Gmean ratio (90% CI) of M-5/REG ratio AUC0–t ([2]; IREG+ATO vs IIREG): 1.70 (1.42; 2.03) | Gmean ratio (90% CI) of M-5/REG ratio AUC0–∞ ([2]; IREG+ATO vs IIREG): 1.71 (1.43; 2.03) | Gmean ratio (90% CI) of M-5/REG ratio Cmax ([2]; IREG+ATO vs IIREG): 1.52 (0.68; 3.39)* | Cmax as share of the REG Cmax ([2]; REG group): 1.17% | increase of M-5/REG ratio for AUC0–t ([2]; in the presence of ATO): 100.0% | increase of M-5/REG ratio for AUC0–∞ ([2]; in the presence of ATO): 100.0% | increase of M-5/REG ratio for Cmax ([2]; in the presence of ATO): 66.7% | AUC0–t [2, 6]: 791.48 (703.15; 884.23) ng × h/mL | AUC0–∞ [2, 6]: 833.10 (752.92; 929.13) ng × h/mL | Cmax [2, 6]: 26.90 (23.40; 28.65) ng/mL | AUC0–t [2, 7]: 5501.55 (5310.04; 5967.36) ng × h/mL | AUC0–∞ [2, 7]: 5919.80 (5556.63; 6371.62) ng × h/mL | Cmax [2, 7]: 150.05 (136.75; 155.40) ng/mL

CC(C)c1c(C(=O)Nc2ccccc2O)c(-c2ccccc2)c(-c2ccc(F)cc2)n1CC[C@@H](O)C[C@@H](O)CC(=O)O [2-OH ATO, orthohydroxy atorvastatin]
AUC0–t [3]: 544.83 (448.90; 682.46) ng × h/mL | Cmax [3]: 126.09 (87.49; 276.16) ng/mL

CNC(=O)c1cc(Oc2ccc(NC(=O)Nc3ccc(Cl)c(C(F)(F)F)c3)c(F)c2)cc[n+]1[O-] [M-2, regorafenib N-oxide]
Cmax as share of the REG Cmax [1]: 15.17% | M-2/REG ratio AUC0–t [2, 4]: 0.26 (0.20; 0.31) | M-2/REG ratio AUC0–∞ [2, 4]: 0.30 (0.26; 0.38) | M-2/REG ratio Cmax [2, 4]: 0.18 (0.13; 0.28) | increase of AUC0–t [2]: 4.5 fold | increase of AUC0–∞ [2]: 3.6 fold | Cmax as share of the REG Cmax ([2]; IREG+ATO group): 24.14% | M-2/REG ratio AUC0–t [2, 5]: 0.31 (0.27; 0.45) | M-2/REG ratio Cmax [2, 5]: 0.27 (0.20; 0.33) | Gmean ratio (90% CI) of AUC0–t ([2]; IREG+ATO vs IIREG): 5.47 (4.30; 6.96)* | Gmean ratio (90% CI) of AUC0–∞ ([2]; IREG+ATO vs IIREG): 4.55 (3.70; 5.60)* | Gmean ratio (90% CI) of Cmax ([2]; IREG+ATO vs IIREG): 5.03 (3.82; 6.62)* | Gmean ratio (90% CI) of M-2/REG ratio AUC0–t ([2]; IREG+ATO vs IIREG): 1.30 (0.96; 1.76)* | Gmean ratio (90% CI) of M-2/REG ratio AUC0–∞ ([2]; IREG+ATO vs IIREG): 1.08 (0.81; 1.46)* | Gmean ratio (90% CI) of M-2/REG ratio Cmax ([2]; IREG+ATO vs IIREG): 1.35 (0.60; 3.07)* | Cmax as share of the REG Cmax ([2]; REG group): 15.28% | AUC0–t [2, 6]: 9548.40 (8488.70; 11,642.31) ng × h/mL | AUC0–∞ [2, 6]: 10,947.48 (9718.99; 12,781.14) ng × h/mL | Cmax [2, 6]: 302.15 (249.90; 395.95) ng/mL | AUC0–t [2, 7]: 52,182.11 (40,840.43; 64,989.90) ng × h/mL | AUC0–∞ [2, 7]: 52,438.36 (41,030.58; 65,561.89) ng × h/mL | Cmax [2, 7]: 1647.45 (1374.65; 1994.65) ng/mL

CNC(=O)c1cc(Oc2ccc(NC(=O)Nc3ccc(Cl)c(C(F)(F)F)c3)c(F)c2)ccn1 [REG, regorafenib, reference compound]
increase of AUC0–t [2]: 3.2 fold | increase of AUC0–∞ [2]: 3.2 fold | Gmean ratio (90% CI) of AUC0–t ([2]; IREG+ATO vs IIREG): 4.20 (3.57; 4.95)* | Gmean ratio (90% CI) of AUC0–∞ ([2]; IREG+ATO vs IIREG): 4.20 (3.56; 4.94)* | Gmean ratio (90% CI) of Cl/F ([2]; IREG+ATO vs IIREG): 0.26 (0.22; 0.30)* | Gmean ratio (90% CI) of Cmax ([2]; IREG+ATO vs IIREG): 3.72 (3.20; 4.32)* | Gmean ratio (90% CI) of Vd/F ([2]; IREG+ATO vs IIREG): 0.28 (0.22; 0.37)* | Gmean ratio (90% CI) of ka ([2]; IREG+ATO vs IIREG): 1.60 (1.09; 2.37) | Gmean ratio (90% CI) of kel ([2]; IREG+ATO vs IIREG): 0.91 (0.75; 1.10) | Gmean ratio (90% CI) of t1/2 ([2]; IREG+ATO vs IIREG): 1.10 (0.91; 1.33) | Gmean ratio (90% CI) of tmax ([2]; IREG+ATO vs IIREG): 0.85 (0.63; 1.17)* | differences in tmax, ka, kel, t0.5 ([2]; IREG+ATO vs IIREG): No statistically significant differences | decrease of Cl/F [2, 8]: 72.7% | decrease of Vd/F [2, 8]: 71.7% | Tmax [2, 9]: 6 h | Vd/F [2, 9]: 1.98 L | AUC(0-inf) [2, 9]: 36000 ng·h/mL | AUC(0-t) [2, 9]: 35800 ng·h/mL | Cmax ([2]; male, Wistar, rat, plasma, po, 20 mg/kg, IIREG group: single oral REG 20 mg/kg b.w. alone, median (quartiles), read-out: Cmax): 1880 ng/mL | Tmax [2, 10]: 5 h | Vd/F [2, 10]: 0.51 L | AUC(0-inf) [2, 10]: 163000 ng·h/mL | AUC(0-t) [2, 10]: 163000 ng·h/mL | Cmax ([2]; male, Wistar, rat, plasma, po, 20 mg/kg, IREG+ATO group: single oral REG 20 mg/kg + ATO 20 mg/kg b.w., median (quartiles), read-out: Cmax): 7290 ng/mL

CC(C)c1c(C(=O)Nc2ccc(O)cc2)c(-c2ccccc2)c(-c2ccc(F)cc2)n1CC[C@@H](O)C[C@@H](O)CC(=O)O [4-OH ATO, parahydroxy atorvastatin]
AUC0–∞ [3]: 18.32 (12.89; 24.73) ng × h/mL
